The source of these data is patent US20250243176A1, “(S)-1-(1-ACRYLOYLPIPERIDIN-3-YL)-2-FLUORO-5,6,7,8,9,10-HEXAHYDROCYCLO HEPTA[B]INDOLE-4-CARBOXAMIDE, AND RELATED CRYSTALLINE FORMS, COMPOSITIONS, AND METHODS THEREOF” (GB005, Inc., priority 2021, published 2025).

Converted amounts (≈) assume the structure as drawn. “Also recorded” adds a separate entry of the source.

Holding throughout (format): physicochemical
Data set [1] is described as follows: Competition slurry / inter-conversion study of Form I and Form III. The settings on record: competition slurry of Form I and Form III in water and heptane; RT to 80° C. The procedure:
Equal amounts of Form I and Form III were mixed in water and heptane to form slurries and stirred at RT (˜25° C.) or 80° C.

Data set [2] in a line: Dynamic vapor sorption (DVS). The procedure:
Moisture sorption/desorption data was collected on a Vsorp Dynamic Moisture Sorption Analyzer (ProUmid GmbH & Co. KG, Germany). The sample was placed into a tared sample chamber and automatically weighed. • Sample temperature 25° C. • Cycle: Full cycle • Adsorption 0, 10, 20, 30, 40, 50, 60, 70, 80, 90 • Desorption 80, 70, 60, 50, 40, 30, 20, 10, 0

A short description of data set [3]: Solubility testing in bio-relevant media (Form III). The settings on record: 37° C.; for Solubility / solubility at 1 h: 1 h; for Solubility / solubility at 4 h: 4 h; for Solubility / solubility at 24 h: 24 h; for solubility at 1 h / solubility at 4 h / solubility at 24 h: thermodynamic from solid. The procedure: FaSSIF Buffer Solution: 6 mL 0.2 M NaOH, 388.7 mg of NaH2PO4, and 608.2 mg of NaCl were dissolved and diluted to 100 mL with water. The pH was 6.51. FaSSIF Media: 34.56 mg of SIF powder was dissolved in 15 mL of FaSSIF buffer solution. The solution was stirred and equilibrated at ambient temperature with light protection for 2 hours. SIF powder was purchased from Biorelevant.com.
FeSSIF Buffer Solution: 408.4 mg of NaOH, 868.5 mg of acetic acid, and 1.1802 g of NaCl were dissolved and diluted to 100 mL with water. The pH of the solution was 4.98. FeSSIF Media: 168.42 mg of SIF powder was dissolved in 15 mL of FeSSIF buffer solution. The solution was protected from light.
FaSSGF Buffer Solution: 222 mg of NaCl were dissolved with water, then added 1N HCl adjust the pH to 1.6. […] The solution was stirred and equilibrated at ambient temperature with light protection for 2 hours.
FaSSIF-V2 Buffer Solution: 154.4 mg NaOH, 246.7 mg of maleic acid and 445.6 mg of NaCl were dissolved and diluted to 100 mL with water. The pH was 6.51. FaSSIF-V2 Media: 28.64 mg of FaSSIF-V2 powder (purchased from Biorelevant.com) was dissolved in 8 mL of FaSSIF-V2 buffer solution. The solution was stirred and equilibrated at ambient temperature with light protection for 2 hours.
FeSSIF-V2 Buffer Solution: […] of NaOH, 710 mg of maleic acid, and 814.4 mg of NaCl were dissolved and diluted to 100 mL with water. The pH of the solution was 5.8. FeSSIF-V2 Media: 156.16 mg of FeSSIF-V2 powder was dissolved in 8 mL of FeSSIF-V2 buffer solution. The solution was protected from light.
Samples were prepared in duplicate for each medium. The suspensions were shaken at 37° C. for up to 24 hours.

The nature of data set [4]: Grinding (mechanical treatment) of Form III. The procedure: Polymorph screening of Compound 1 was conducted using various crystallization methods, including slurry, cooling and evaporative crystallization, anti-solvent precipitation, thermal and mechanical treatment.
The nature of data set [5]: Solid-state stability of Form III. The procedure:
The solid-state stability of Compound 1, Form III was examined in duplicate (sample 1 and sample 2) for 7 days under the conditions below and the resultant solids analyzed by XRPD: • 40° C./75% relative humidity (open); and • 60° C. (capped).
The solid-state stability of Compound 1, Form III was also examined for 3 months under the conditions below: • 40° C./75% relative humidity; and • 25° C./60% relative humidity

Data set [6] can be described thus: Approximate solubility, solvent addition method, visual assessment. The procedure: The approximate solubility of the initial solid was determined using a solvent addition method via visual assessment of samples.
Values are rounded to nearest whole number and reported as “<” if dissolution was not observed, and as “>” if dissolution occurred after addition of first aliquot.

`C=CC(=O)N1CCC[C@@H](c2c(F)cc(C(N)=O)c3[nH]c4c(c23)CCCCC4)C1` [Form III, (S)-1-(1-acryloylpiperidin-3-yl)-2-fluoro-5,6,7,8,9,10-hexahydrocyclohepta[b]indole-4-carboxamide]: the “relative stability of crystal forms” value in data set [1] was “most stable Form; also recorded: more stable than Form I”. Moreover, the hygroscopicity entry in data set [2] (DVS) is reported as “non-hygroscopic”. Further, the “crystal Form after DVS testing” value in data set [2] (XRPD before and after DVS) was “remained unchanged”. The “weight gain (DVS)” value in data set [2] (up to 90% RH, 25° C.) is < 0.5%. Besides, the Solubility result in data set [3] (FaSSGF, pH 1.6, pH at 24 h 1.7) is recorded as “<LOQ”; in data set [3] (pH 5.8 Buffer, pH at 24 h 5.8), “<LOQ”; in data set [3] (pH 6.5 Buffer, pH at 24 h 6.6) it was “<LOQ”. Moreover, the solubility at 1 h came to 6 µg/mL (≈ 15.6 µM) in data set [3] (FaSSIF, pH 6.5); 4 µg/mL (≈ 10.4 µM) in data set [3] (FaSSIF-V2, pH 6.5); 73 µg/mL (≈ 190 µM) in data set [3] (FeSSIF, pH 5.0); 120 µg/mL (≈ 313 µM) in data set [3] (FeSSIF-V2, pH 5.8). Besides, the solubility at 4 h came to 5 µg/mL (≈ 13 µM) in data set [3] (FaSSIF, pH 6.5); 4 µg/mL (≈ 10.4 µM) in data set [3] (FaSSIF-V2, pH 6.5); 75 µg/mL (≈ 196 µM) in data set [3] (FeSSIF, pH 5.0); 200 µg/mL (≈ 522 µM) in data set [3] (FeSSIF-V2, pH 5.8). In addition, the solubility at 24 h is 7 µg/mL (≈ 18.3 µM) in data set [3] (FaSSIF, pH 6.5, pH at 24 h 6.5); 4 µg/mL (≈ 10.4 µM) in data set [3] (FaSSIF-V2, pH 6.5, pH at 24 h 6.6); 90 µg/mL (≈ 235 µM) in data set [3] (FeSSIF, pH 5.0, pH at 24 h 5.0); 180 µg/mL (≈ 469 µM) in data set [3] (FeSSIF-V2, pH 5.8, pH at 24 h 5.9). In data set [4], the “crystal form after grinding” value is “remained unchanged”. The crystallinity after grinding entry in data set [4] was “decreased slightly”. Also, the solid-state stability entry in data set [5] (3 months, 40° C./75% relative humidity and 25° C./60% relative humidity) was “stable”; in data set [5] (7 days, 40° C./75% relative humidity (open) and 60° C. (capped)), “chemically and physically stable”.

For `C=CC(=O)N1CCC[C@@H](c2c(F)cc(C(N)=O)c3[nH]c4c(c23)CCCCC4)C1` [starting material, (S)-1-(1-acryloylpiperidin-3-yl)-2-fluoro-5,6,7,8,9,10-hexahydrocyclohepta[b]indole-4-carboxamide], the Solubility in data set [6] (1,4-dioxane) was ~20000 µg/mL (≈ 52200 µM); in data set [6] (1,4-dioxane, organic solvent or mixture, thermodynamic from solid, 1,4-dioxane, read-out: Solubility), > 20000 µg/mL; in data set [6] (2-butanone (MEK), organic solvent or mixture, thermodynamic from solid, 2-Butanone (MEK), read-out: Solubility), ~8300 µg/mL (≈ 21600 µM); in data set [6] (2-propanol (IPA), organic solvent or mixture, thermodynamic from solid, 2-Propanol (IPA), read-out: Solubility) it was ~4200 µg/mL (≈ 11000 µM); in data set [6] (Dimethyl sulfoxide (DMSO)) it was >250000 µg/mL; in data set [6] (Tetrahydrofuran (THF)), ~25000 µg/mL (≈ 65200 µM). Further, the Solubility was <600 µg/mL in data set [6] (Water); ~7100 µg/mL (≈ 18500 µM) in data set [6] (acetone, organic solvent or mixture, thermodynamic from solid, Acetone, read-out: Solubility); ~1700 µg/mL (≈ 4430 µM) in data set [6] (acetonitrile, organic solvent or mixture, thermodynamic from solid, Acetonitrile, read-out: Solubility); > 250000 µg/mL in data set [6] (dimethyl sulfoxide (DMSO), organic solvent or mixture, thermodynamic from solid, Dimethyl sulfoxide (DMSO), read-out: Solubility); ~5000 µg/mL (≈ 13000 µM) in data set [6] (ethanol, organic solvent or mixture, thermodynamic from solid, Ethanol, read-out: Solubility); ~2000 µg/mL (≈ 5220 µM) in data set [6] (ethyl acetate, organic solvent or mixture, thermodynamic from solid, Ethyl acetate, read-out: Solubility). The Solubility in data set [6] (isopropyl acetate, organic solvent or mixture, thermodynamic from solid, Isopropyl acetate, read-out: Solubility) is ~1500 µg/mL (≈ 3910 µM); in data set [6] (methanol, organic solvent or mixture, thermodynamic from solid, Methanol, read-out: Solubility), ~7100 µg/mL (≈ 18500 µM); in data set [6] (n-Heptane), <600 µg/mL; in data set [6] (n-butanol (NBA), organic solvent or mixture, thermodynamic from solid, n-Butanol (NBA), read-out: Solubility), ~2300 µg/mL (≈ 6000 µM); in data set [6] (n-heptane, organic solvent or mixture, thermodynamic from solid, n-Heptane, read-out: Solubility), < 600 µg/mL; in data set [6] (tetrahydrofuran (THF), organic solvent or mixture, thermodynamic from solid, Tetrahydrofuran (THF), read-out: Solubility) it was > 20000 µg/mL. Further, the Solubility in data set [6] (toluene, organic solvent or mixture, thermodynamic from solid, Toluene, read-out: Solubility) is ~1300 µg/mL (≈ 3390 µM); in data set [6] (water, thermodynamic from solid, Water, read-out: Solubility) it was < 600 µg/mL.
